Test results from patent US9453062B2, “Glucose dependent insulinotropic polypeptide analogs, pharmaceutical compositions and use thereof” (Beijing Hanmi Pharmaceutical Co., Ltd., priority 2011, dated 2016).
Read-outs that look alike come from different tables or passages of the source. Where a SMILES comes first, the peptide text is derived from it. Where no end group is shown, it is not given here. [ ]: non-standard residue; d: D form. Phe(4-NO2) = N[C@@H](Cc1ccc([N+](=O)[O-])cc1)C(=O)O; Met(O) = CS(=O)CC[C@H](N)C(=O)O; Nle = CCCC[C@H](N)C(=O)O; Aib = CC(C)(N)C(=O)O

Assays:
[1] = target: T1, hGIPR (Homo sapiens, UniProt P48546); test: hGIPR-mediated cAMP induction assay in CHO cell line; type: cell-based; conditions: for GIP Receptor Relative Potency: against native GIP
T1 construct: expressed in transfected cells; host or cells: CHO
T1 sequence (P48546 22-466): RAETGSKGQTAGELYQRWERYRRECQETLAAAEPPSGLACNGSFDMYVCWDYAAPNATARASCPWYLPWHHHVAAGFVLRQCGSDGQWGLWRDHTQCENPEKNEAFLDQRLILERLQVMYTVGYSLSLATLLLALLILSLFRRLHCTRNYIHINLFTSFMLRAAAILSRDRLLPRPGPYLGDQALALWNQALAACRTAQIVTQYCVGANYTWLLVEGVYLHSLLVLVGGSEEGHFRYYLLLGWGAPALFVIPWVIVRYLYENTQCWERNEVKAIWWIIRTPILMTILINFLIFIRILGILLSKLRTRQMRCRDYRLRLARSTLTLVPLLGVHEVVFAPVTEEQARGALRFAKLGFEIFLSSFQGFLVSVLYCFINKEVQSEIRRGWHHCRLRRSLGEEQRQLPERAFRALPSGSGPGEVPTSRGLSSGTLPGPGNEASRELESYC

[2] = target: T2, hGLP-1R (Homo sapiens, UniProt P43220); test: hGLP-1R-mediated cAMP induction assay in CHO cell line; type: cell-based;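 also: CHO cells expressing human GLP-1R, treated 30 min at 37 °C, intracellular cAMP measured by competitive fluorescent immunoassay and converted via a cAMP standard curve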
T2 construct: expressed in transfected cells; host or cells: CHO
T2 sequence (P43220 24-463): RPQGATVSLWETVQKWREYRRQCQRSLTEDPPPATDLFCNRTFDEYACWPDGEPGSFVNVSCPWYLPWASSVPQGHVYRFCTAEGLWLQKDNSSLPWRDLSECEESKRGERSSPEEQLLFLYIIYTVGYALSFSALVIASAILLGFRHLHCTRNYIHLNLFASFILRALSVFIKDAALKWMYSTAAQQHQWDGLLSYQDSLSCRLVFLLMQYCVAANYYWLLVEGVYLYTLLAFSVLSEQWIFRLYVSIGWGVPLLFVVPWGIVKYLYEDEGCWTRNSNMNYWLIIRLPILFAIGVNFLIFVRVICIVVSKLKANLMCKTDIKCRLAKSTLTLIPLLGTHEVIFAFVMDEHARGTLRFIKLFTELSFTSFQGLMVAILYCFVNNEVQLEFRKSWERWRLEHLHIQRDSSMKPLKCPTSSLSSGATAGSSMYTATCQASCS

Row | Compound | GIP Receptor Relative Potency ([1]; Table 3) | also measured
1 | CC[C@H](C)[C@H](NC(=O)[C@H](CO)NC(=O)[C@H](Cc1ccc(O)cc1)NC(=O)[C@H](CC(=O)O)NC(=O)[C@H](CO)NC(=O)[C@@H](NC(=O)[C@H](Cc1ccccc1)NC(=O)[C@@H](NC(=O)CNC(=O)[C@H](CCC(=O)O)NC(=O)C(C)(C)NC(=O)[C@@H](N)Cc1ccc(O)cc1)[C@@H](C)O)[C@@H](C)O)C(=O)N[C@@H](Cc1ccc(O)cc1)C(=O)N[C@@H](CCSC)C(=O)N[C@@H](CCC(=O)O)C(=O)N[C@@H](CCCCN)C(=O)N[C@H](C(=O)N[C@@H](Cc1c[nH]cn1)C(=O)N[C@@H](CCC(N)=O)C(=O)N[C@@H](CCC(N)=O)C(=O)N[C@@H](CC(=O)O)C(=O)N[C@@H](Cc1ccccc1)C(=O)N[C@H](C(=O)N[C@@H](CC(N)=O)C(=O)N[C@@H](Cc1c[nH]c2ccccc12)C(=O)N[C@@H](CC(C)C)C(=O)N[C@@H](CC(C)C)C(=O)N[C@@H](C)C(=O)N[C@@H](CCC(N)=O)C(N)=O)C(C)C)[C@@H](C)CC [Compound 003] (H-Y[Aib]EGTFTSDYSIYMEKIHQQDFVNWLLAQ-NH2; N-terminus assumed) | 77.7 | –
2 | CC[C@H](C)[C@H](NC(=O)[C@H](CO)NC(=O)[C@H](Cc1ccc(O)cc1)NC(=O)[C@H](CC(=O)O)NC(=O)[C@H](CO)NC(=O)[C@@H](NC(=O)[C@H](Cc1ccccc1)NC(=O)[C@@H](NC(=O)CNC(=O)[C@H](CCC(=O)O)NC(=O)C(C)(C)NC(=O)[C@@H](N)Cc1ccc(O)cc1)[C@@H](C)O)[C@@H](C)O)C(=O)N[C@@H](Cc1ccc([N+](=O)[O-])cc1)C(=O)N[C@@H](CC[S+](C)[O-])C(=O)N[C@@H](CCC(=O)O)C(=O)N[C@@H](CCCCN)C(=O)N[C@H](C(=O)N[C@@H](Cc1c[nH]cn1)C(=O)N[C@@H](CCC(N)=O)C(=O)N[C@@H](CCC(N)=O)C(=O)N[C@@H](CC(=O)O)C(=O)N[C@@H](Cc1ccccc1)C(=O)N[C@H](C(=O)N[C@@H](CC(N)=O)C(=O)N[C@@H](Cc1c[nH]c2ccccc12)C(=O)N[C@@H](CC(C)C)C(=O)N[C@@H](CC(C)C)C(=O)N[C@@H](C)C(=O)N[C@@H](CCC(N)=O)C(N)=O)C(C)C)[C@@H](C)CC (stereo partly shown) [Compound 005] (H-Y[Aib]EGTFTSDYSI[Phe(4-NO2)][Met(O)]EKIHQQDFVNWLLAQ-NH2) | – | EC50 [2]: > 2000 nM
3 | CCCC[C@H](NC(=O)[C@H](Cc1ccc(O)cc1)NC(=O)[C@@H](NC(=O)[C@H](CO)NC(=O)[C@H](Cc1ccc(O)cc1)NC(=O)[C@H](CC(=O)O)NC(=O)[C@H](CO)NC(=O)[C@@H](NC(=O)[C@H](Cc1ccccc1)NC(=O)[C@@H](NC(=O)CNC(=O)[C@H](CCC(=O)O)NC(=O)C(C)(C)NC(=O)[C@@H](N)Cc1ccc(O)cc1)[C@@H](C)O)[C@@H](C)O)[C@@H](C)CC)C(=O)N[C@@H](CCC(=O)O)C(=O)N[C@@H](CCCCN)C(=O)N[C@@H](CCC(=O)O)C(=O)N[C@@H](C)C(=O)N[C@@H](CCC(N)=O)C(=O)N[C@@H](CCC(N)=O)C(=O)N[C@@H](CC(=O)O)C(=O)N[C@@H](Cc1ccccc1)C(=O)N[C@H](C(=O)N[C@@H](CC(N)=O)C(=O)N[C@@H](Cc1c[nH]c2ccccc12)C(=O)N[C@@H](CC(C)C)C(=O)N[C@@H](CC(C)C)C(=O)N[C@@H](C)C(=O)N[C@@H](CCC(N)=O)C(N)=O)C(C)C [Compound 020] (H-Y[Aib]EGTFTSDYSIY[Nle]EKEAQQDFVNWLLAQ-NH2; N-terminus assumed) | 51.8 | EC50 [1]: 0.27 nM
4 | CCCC[C@H](NC(=O)[C@H](Cc1ccc(O)cc1)NC(=O)[C@@H](NC(=O)[C@H](CO)NC(=O)[C@H](Cc1ccc(O)cc1)NC(=O)[C@H](CC(=O)O)NC(=O)[C@H](CO)NC(=O)[C@@H](NC(=O)[C@H](Cc1ccccc1)NC(=O)[C@@H](NC(=O)CNC(=O)[C@H](CCC(=O)O)NC(=O)C(C)(C)NC(=O)[C@@H](N)Cc1ccc(O)cc1)[C@@H](C)O)[C@@H](C)O)[C@@H](C)CC)C(=O)N[C@@H](CCC(=O)O)C(=O)N[C@@H](CCCCN)C(=O)N[C@H](C(=O)N[C@@H](Cc1c[nH]cn1)C(=O)N[C@@H](CCC(N)=O)C(=O)N[C@@H](CCC(N)=O)C(=O)N[C@@H](CC(=O)O)C(=O)N[C@@H](Cc1ccccc1)C(=O)N[C@H](C(=O)N[C@@H](CC(N)=O)C(=O)N[C@@H](Cc1c[nH]c2ccccc12)C(=O)N[C@@H](CC(C)C)C(=O)N[C@H](C(=O)N[C@@H](CCCNC(=N)N)C(=O)N[C@@H](CCC(N)=O)C(N)=O)C(C)C)C(C)C)[C@@H](C)CC [Compound 021] (H-Y[Aib]EGTFTSDYSIY[Nle]EKIHQQDFVNWLVRQ-NH2; N-terminus assumed) | 21.7 | –
5 | CC[C@H](C)[C@H](NC(=O)[C@H](Cc1ccccc1)NC(=O)[C@H](CCC(=O)O)NC(=O)[C@H](CCC(=O)O)NC(=O)[C@@H](NC(=O)[C@H](C)NC(=O)[C@H](CCC(=O)O)NC(=O)[C@H](CCCCN)NC(=O)[C@H](CCC(=O)O)NC(=O)[C@H](CCSC)NC(=O)[C@H](Cc1ccc(O)cc1)NC(=O)[C@@H](NC(=O)[C@H](CO)NC(=O)[C@H](Cc1ccc(O)cc1)NC(=O)[C@H](CC(=O)O)NC(=O)[C@H](CO)NC(=O)[C@@H](NC(=O)[C@H](Cc1ccccc1)NC(=O)[C@@H](NC(=O)CNC(=O)[C@H](CCC(=O)O)NC(=O)C(C)(C)NC(=O)[C@@H](N)Cc1ccc(O)cc1)[C@@H](C)O)[C@@H](C)O)[C@@H](C)CC)C(C)C)C(=O)N[C@@H](C)C(=O)N[C@@H](Cc1c[nH]c2ccccc12)C(=O)N[C@@H](CC(C)C)C(=O)N[C@H](C(=O)N[C@@H](CCCCN)C(=O)NCC(N)=O)C(C)C [Compound 053-1] (H-Y[Aib]EGTFTSDYSIYMEKEAVEEFIAWLVKG-NH2; N-terminus assumed) | 34 | EC50 ([1]; Table 3, CHO hGIPR cells): 0.5 nM
6 | CC[C@H](C)[C@H](NC(=O)[C@H](Cc1ccccc1)NC(=O)[C@H](CCC(=O)O)NC(=O)[C@H](CCCCN)NC(=O)[C@@H](NC(=O)[C@H](C)NC(=O)[C@H](CCC(=O)O)NC(=O)[C@H](CCCCN)NC(=O)[C@H](CCC(=O)O)NC(=O)[C@H](CCSC)NC(=O)[C@H](Cc1ccc(O)cc1)NC(=O)[C@@H](NC(=O)[C@H](CO)NC(=O)[C@H](Cc1ccc(O)cc1)NC(=O)[C@H](CC(=O)O)NC(=O)[C@H](CO)NC(=O)[C@@H](NC(=O)[C@H](Cc1ccccc1)NC(=O)[C@@H](NC(=O)CNC(=O)[C@H](CCC(=O)O)NC(=O)C(C)(C)NC(=O)[C@@H](N)Cc1ccc(O)cc1)[C@@H](C)O)[C@@H](C)O)[C@@H](C)CC)C(C)C)C(=O)N[C@@H](C)C(=O)N[C@@H](Cc1c[nH]c2ccccc12)C(=O)N[C@@H](CC(C)C)C(=O)N[C@H](C(=O)N[C@@H](CCCCN)C(=O)NCC(N)=O)C(C)C [Compound 057] (H-Y[Aib]EGTFTSDYSIYMEKEAVKEFIAWLVKG-NH2; N-terminus assumed) | 36.8 | EC50 ([1]; Table 3, CHO hGIPR cells): 0.57 nM
7 | Tyr-Ala-Glu-Gly-Thr-Phe-Ile-Ser-Asp-Tyr-Ser-Ile-Ala-Met-Asp-Lys-Ile-His-Gln-Gln-Asp-Phe-Val-Asn-Trp-Leu-Leu-Ala-Gln(NH2) (YAEGTFISDYSIAMDKIHQQDFVNWLLAQ-NH2; listed as Homo sapiens) [GIP (1-29), initial scaffold, reference compound] | – | GIPR activation in vitro, in words ([1]; cAMP induction, liraglutide up to 1 μM): equivalent GIPR activation in vitro to that of the full-length GIP (1-42)
